In US12668591B2, “1,2,4-oxadiazole derivatives as histone deacetylase 6 inhibitors” (Oryzon Genomics, S.A., priority 2017, dated 2026):

Tests used:
HDAC2 = target: T1, HDAC2 (Homo sapiens, UniProt Q92769); assay: HDAC2 enzyme inhibition assay (fluorimetric); format: biochemical; details: 1 μM compound; 3 h pre-incubation; recombinant full length HDAC2; read-out: HDAC2 % inh @ 1 μM
T1 construct: (full length with C-terminal His-tag); His (C); purchased BPS Bioscience Inc. 50002
Procedure: (§1) HDAC6 and HDAC2 Enzyme Inhibition Assay
(§2) A fluorimetric assay was used for testing the activity of compounds of the invention against HDAC6 and HDAC2.
(§3) The compounds were dissolved in DMSO. Serial dilutions were prepared in DMSO and then diluted 1:10 in HDAC assay buffer (Tris-buffered solution, BPS Bioscience Inc. #50031). 5 μl of the compound dilution was added to a 50 μl reaction so that the final concentration of DMSO was 1%.
(§4) The compounds were pre-incubated in duplicate at RT for 3 hours in a mixture containing HDAC assay buffer, 5 μg BSA and recombinant HDAC enzyme (see table above). The enzymatic reactions were initiated by the addition of a fluorogenic, acetylated peptide substrate based on a histone protein (BPS Bioscience Inc. #50037) to a final concentration of 10 μM. The enzymatic reaction proceeded for 30 minutes at 37° C. Then, 50 μl of 2× HDAC Developer, which contains peptidase activity and Trichostatin A (BPS Bioscience Inc. #50030) was added and the plate was incubated at RT for an additional 15 minutes. Fluorescence intensity was measured at an excitation of 360 nm and an emission of 460 nm using a Tecan Infinite M1000 microplate reader.
(§5) Trichostatin A (TSA, Selleckchem #S1045) was used as reference inhibitor.
(§6) The fluorescent intensity data were analyzed using the computer software Graphpad Prism (GraphPad Software, San Diego, CA). 100% activity was defined as the fluorescent intensity (Ft) in the absence of the compound. 0% activity was defined as the fluorescent intensity (Fb) in the absence of the enzyme. The percent activity in the presence of each compound was calculated according to the following equation: % activity=(F−Fb)/(Ft−Fb), where F=the fluorescent intensity in the presence of the compound.

HDAC6 [1] = target: T2, HDAC6 (Homo sapiens, UniProt Q9UBN7); assay: In vitro cell-based assay: acetylation levels of Alpha-Tubulin by Western Blot in MOLP8 cells; design: endogenous in cells; host or cells: MOLP8; details: 18 h, acetyl-alpha-tubulin relative band intensity, ACY-1215 1 μM = 100%
T2 sequence (Q9UBN7 1-1215): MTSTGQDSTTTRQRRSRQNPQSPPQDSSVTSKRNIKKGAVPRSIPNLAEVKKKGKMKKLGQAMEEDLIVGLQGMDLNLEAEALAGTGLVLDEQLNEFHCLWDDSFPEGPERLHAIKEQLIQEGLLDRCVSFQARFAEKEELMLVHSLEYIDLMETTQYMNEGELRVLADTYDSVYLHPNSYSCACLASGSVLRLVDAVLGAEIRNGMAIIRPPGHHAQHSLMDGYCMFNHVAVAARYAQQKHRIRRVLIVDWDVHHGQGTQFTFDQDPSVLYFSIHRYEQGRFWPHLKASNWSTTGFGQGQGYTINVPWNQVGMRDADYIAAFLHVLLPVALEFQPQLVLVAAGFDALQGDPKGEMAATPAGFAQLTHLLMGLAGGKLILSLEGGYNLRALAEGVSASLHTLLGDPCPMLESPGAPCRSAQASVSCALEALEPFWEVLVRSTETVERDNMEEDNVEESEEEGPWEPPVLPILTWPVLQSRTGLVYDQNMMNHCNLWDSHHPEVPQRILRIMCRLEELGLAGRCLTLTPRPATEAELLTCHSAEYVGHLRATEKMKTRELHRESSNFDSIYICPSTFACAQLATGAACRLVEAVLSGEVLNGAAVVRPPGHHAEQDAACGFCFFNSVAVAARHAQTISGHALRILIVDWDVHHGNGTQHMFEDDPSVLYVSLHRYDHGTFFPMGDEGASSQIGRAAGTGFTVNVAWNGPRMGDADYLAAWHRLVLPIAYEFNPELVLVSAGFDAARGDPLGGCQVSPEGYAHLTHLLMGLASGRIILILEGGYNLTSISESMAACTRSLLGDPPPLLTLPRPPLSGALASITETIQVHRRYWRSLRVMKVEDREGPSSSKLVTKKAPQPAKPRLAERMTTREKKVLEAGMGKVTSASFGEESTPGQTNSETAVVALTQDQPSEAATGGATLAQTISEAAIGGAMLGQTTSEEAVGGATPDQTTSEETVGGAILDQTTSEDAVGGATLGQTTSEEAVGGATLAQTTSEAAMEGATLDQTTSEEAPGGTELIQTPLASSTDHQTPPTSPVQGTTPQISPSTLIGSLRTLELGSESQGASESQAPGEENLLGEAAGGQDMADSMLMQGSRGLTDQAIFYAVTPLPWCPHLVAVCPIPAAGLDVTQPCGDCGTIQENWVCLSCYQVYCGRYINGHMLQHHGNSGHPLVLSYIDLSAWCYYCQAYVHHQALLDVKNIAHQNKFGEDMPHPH
Procedure: In Vitro Cell-Based Assay
In order to determine the cellular activity of HDAC6 upon treatment with HDAC6 inhibitors, acetylation levels of Alpha-Tubulin (a HDAC6-specific substrate) were measured by Western Blot. For this, MOLP8 cells were seeded in 6-well plates at a cell density of 500.000 cells/well and treated with the selected compounds at 5 and 1 μM for 18 h at 37° C. and 5% CO2 in a humidified tissue culture incubator. Consecutively, cell pellets were collected and whole protein extracts prepared using RIPA buffer (SIGMA) supplemented with 1× protease inhibitors (cOmplete mini, Roche). Protein concentration was determined with Bradford's reagent (Bio-Rad) as per manufacturer's instructions, and 7 μg of total protein were loaded into pre-cast 10% NuPAGE Novex gels (Life Technologies). Gels were run in […] (Life Technologies) and proteins were transferred using the iBlot 2 Dry Blotting System (Life Technologies). Blots were subsequently rinsed in distilled water and stained with Ponceau S solution (SIGMA). Blots were then washed in distilled water to remove Ponceau excess and scanned with the Epson Perfection V600 Photo professional Scanner. After this, blots were de-stained and blocked in 5% milk/PBS-Tween 0.1% for 1 h at room temperature followed by incubation with anti-Acetyl-alpha Tubulin (SIGMA cat. #T7451, 1:10.000 dilution) and anti-Beta-actin (SIGMA, cat. #A5316, 1:2.000 dilution) primary antibodies in 5% milk/PBS-T 0.1%, overnight at 4° C. on a shaking platform. After incubation, blots were washed 3 times for 5 minutes each in PBS-Tween 0.5% and incubated with anti-mouse HRP-conjugated secondary antibody (Jackson Immuno Research, cat. #115-035-068) at 1:8.000 in 5% milk/PBS-Tween 0.1%, 1 h at room temperature on a shaking platform. After 3 washes of 5 minutes each with PBS-Tween 0.5% and 1 wash in PBS 1×, blots were developed with ECL Plus (GE Healthcare) and the chemiluminescent reaction imaged with the G:Box Chemi XRQ (Syngene) imaging system. WB and Ponceau images were analysed with ImageJ software, WB band intensities normalized by either total protein or Beta-actin content and made relative to ACY-1215 1 μM (equivalent to 100%). ACY-1215 is a HDAC6 inhibitor, and is also known as ricolinostat, with chemical name 2-(diphenylamino)-N-[7-(hydroxyamino)-7-oxoheptyl]-5-pyrimidinecarboxamide. Percentage of band intensities was classified as follows: […]

HDAC6 [2] = target: T2, HDAC6; assay: HDAC6 enzyme inhibition assay (fluorimetric); format: biochemical; details: 1 μM compound; 3 h pre-incubation; recombinant full length HDAC6; read-out: HDAC6 % inh @ 1 μM
Procedure: as §1, §2, §3, §4, §5, §6

T1 sequence (Q92769 whole entry): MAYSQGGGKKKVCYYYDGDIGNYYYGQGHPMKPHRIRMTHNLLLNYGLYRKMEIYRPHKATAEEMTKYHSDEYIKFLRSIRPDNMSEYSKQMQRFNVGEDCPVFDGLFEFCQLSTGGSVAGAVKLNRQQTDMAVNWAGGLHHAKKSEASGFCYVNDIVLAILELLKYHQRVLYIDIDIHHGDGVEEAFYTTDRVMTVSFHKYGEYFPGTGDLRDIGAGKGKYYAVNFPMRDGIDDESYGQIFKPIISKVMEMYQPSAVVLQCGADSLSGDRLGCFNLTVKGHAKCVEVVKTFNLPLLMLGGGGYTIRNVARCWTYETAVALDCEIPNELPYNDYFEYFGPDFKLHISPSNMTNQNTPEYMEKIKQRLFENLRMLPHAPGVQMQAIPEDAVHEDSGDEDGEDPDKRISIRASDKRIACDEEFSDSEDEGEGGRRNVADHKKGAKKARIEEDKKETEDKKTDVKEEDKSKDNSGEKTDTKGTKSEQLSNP

inhibition at 1 µM (HDAC2) [%]	Cellular activity @1 uM (HDAC6 [1])	Cellular activity @5 uM (HDAC6 [1])	inhibition at 1 µM (HDAC6 [2]) [%]	SMILES
19	+ (50-150)	++ (150-300)	85	COCCn1ccc2cnc(-c3cc(-c4noc(C(F)(F)F)n4)ccn3)cc21 [Example 1au, 3-(2-(1-(2-Methoxyethyl)-1H-pyrrolo[3,2-c]pyridin-6-yl)pyridin-4-yl)-5-(trifluoromethyl)-1,2,4-oxadiazole]
3	+ (50-150)	+++ (>300)	66	CCCn1cc(-c2cn[nH]c2)c2cc(-c3cc(-c4noc(C(F)(F)F)n4)ccn3)ncc21 [Example 1v, 3-(2-(1-Propyl-3-(1H-pyrazol-4-yl)-1H-pyrrolo[2,3-c]pyridin-5-yl)pyridin-4-yl)-5-(trifluoromethyl)-1,2,4-oxadiazole]
2	++ (150-300)	++ (150-300)	89	CCCCn1cc(C2=CCN(C)CC2)c2cc(-c3cc(-c4noc(C(F)(F)F)n4)ccn3)ncc21 [Example 1aq, 3-(2-(1-Butyl-3-(1-methyl-1,2,3,6-tetrahydropyridin-4-yl)-1H-pyrrolo[2,3-c]pyridin-5-yl)pyridin-4-yl)-5-(trifluoromethyl)-1,2,4-oxadiazole]
35	+ (50-150)	++ (150-300)	96	CCCn1cc(CO)c2cc(-c3cc(-c4noc(C(F)(F)F)n4)ccn3)ncc21 [Example 1ah, (1-Propyl-5-(4-(5-(trifluoromethyl)-1,2,4-oxadiazol-3-yl)pyridin-2-yl)-1H-pyrrolo[2,3-c]pyridin-3-yl)methanol]
	+ (50-150)	++ (150-300)	84	CCCCn1c(C(=O)N(C)C)cc2cc(-c3cc(-c4noc(C(F)(F)F)n4)ccn3)ncc21 [Example 1b, 1-Butyl-N,N-dimethyl-5-(4-(5-(trifluoromethyl)-1,2,4-oxadiazol-3-yl)pyridin-2-yl)-1H-pyrrolo[2,3-c]pyridine-2-carboxamide]

Further lines, the compound ahead of its results:

SMILES	inhibition at 1 µM (HDAC2) [%]	Cellular activity @1 uM (HDAC6 [1])	Cellular activity @5 uM (HDAC6 [1])	inhibition at 1 µM (HDAC6 [2]) [%]
O=C(Cc1ccccc1)Nc1ccc(-c2cc(-c3noc(C(F)(F)F)n3)ccn2)nc1 [Example 1q, 2-Phenyl-N-(4′-(5-(trifluoromethyl)-1,2,4-oxadiazol-3-yl)-[2,2′-bipyridin]-5-yl)acetamide]	11	+ (50-150)	++ (150-300)	73
FC(F)(F)c1nc(-c2ccnc(-c3cc4c(ccn4Cc4ccccn4)cn3)c2)no1 [Example 1aw, 3-(2-(1-(Pyridin-2-ylmethyl)-1H-pyrrolo[3,2-c]pyridin-6-yl)pyridin-4-yl)-5-(trifluoromethyl)-1,2,4-oxadiazole]	15	+ (50-150)	++ (150-300)	81
FC(F)(F)c1nc(-c2ccnc(-c3cc4c(ccn4C4CCOCC4)cn3)c2)no1 [Example 1o, 3-(2-(1-(Tetrahydro-2H-pyran-4-yl)-1H-pyrrolo[3,2-c]pyridin-6-yl)pyridin-4-yl)-5-(trifluoromethyl)-1,2,4-oxadiazole]	23	++ (150-300)	+++ (>300)	97
O=C(Nc1ccnc(-c2cc(-c3noc(C(F)(F)F)n3)ccn2)c1)C1CCCNC1 (stereo not shown) [Example 5, N-(4′-(5-(trifluoromethyl)-1,2,4-oxadiazol-3-yl)-[2,2′-bipyridin]-4-yl)piperidine-3-carboxamide]	29	++ (150-300)	++ (150-300)	95
Cn1cc(-c2cn[nH]c2)c2cc(-c3cc(-c4noc(C(F)(F)F)n4)ccn3)ncc21 [Example 1ap, 3-(2-(1-Methyl-3-(1H-pyrazol-4-yl)-1H-pyrrolo[2,3-c]pyridin-5-yl)pyridin-4-yl)-5-(trifluoromethyl)-1,2,4-oxadiazole]	6	+ (50-150)	++ (150-300)	86
CCCn1cc(CN2CCCCC2)c2cc(-c3cc(-c4noc(C(F)(F)F)n4)ccn3)ncc21 [Example 1g, 3-(2-(3-(Piperidin-1-ylmethyl)-1-propyl-1H-pyrrolo[2,3-c]pyridin-5-yl)pyridin-4-yl)-5-(trifluoromethyl)-1,2,4-oxadiazole]	38	+ (50-150)	+++ (>300)	96
CCN(CC)CCCOc1cnc(-c2cc(-c3noc(C(F)(F)F)n3)ccn2)nc1 [Example 1m, N,N-Diethyl-3-(2-(4-(5-(trifluoromethyl)-1,2,4-oxadiazol-3-yl)pyridin-2-yl)pyrimidin-5-yloxy)propan-1-amine]		− (<50)	+ (50-150)	81
